In patent US20250144067A1, “PERSONALIZED STARVATION THERAPY FOR CANCER” (Faeth Therapeutics, Inc., priority 2021, published 2025):
Structures can show the parent of a compound that is named as a salt.

How the values were obtained:
[1] = test system: NCI-H292 lung cancer cells; assay: FDA drug screening, complete media vs cholesterol-free media without statin (TABLE 1); type: cell-based, human
[2] = test system: NCI-H292 lung cancer cells; assay: FDA drug screening, complete media vs cholesterol-free media with simvastatin (TABLE 2); type: cell-based, human; conditions: for Cholesterol-free media + simvastatin (0.04 μM) / Complete Media: NCI-H292 cells
[3] = NCI-H292 cells, cholesterol-free media without statin, FDA drug library screen
[4] = NCI-H292 cells, complete media, FDA drug library screen
[5] = complete vs cholesterol-free media, >0 enhanced anti-cancer activity, about 0 neutral, <0 antagonist
[6] = drug in cholesterol-free media with simvastatin 0.04 μM
[7] = complete media vs cholesterol-free media + simvastatin (0.04 μM), >0 enhanced anti-cancer activity, about 0 neutral, <0 antagonist
[8] = Complete minus Cholesterol-free, >0 enhanced anti-cancer activity, about 0 neutral, <0 antagonist
[9] = NCI-H292 cells, cholesterol-free media without statin
[10] = cholesterol-free media with simvastatin 0.04 μM, FDA drug library screen (TABLE 2)
[11] = complete media, FDA drug library screen (TABLE 2)
[12] = complete media minus cholesterol-free media + simvastatin (0.04 μM), >0 enhanced anti-cancer activity, about 0 neutral, <0 antagonist
[13] = complete vs cholesterol-free media, greater than 0 enhanced anti-cancer activity, about 0 neutral, below 0 antagonists
[14] = cholesterol-free media with simvastatin 0.04 μM, cell growth value in FDA drug screen
[15] = complete media, cell growth value in FDA drug screen
[16] = complete media minus cholesterol-free media + simvastatin, >0 enhanced anti-cancer activity, about 0 neutral, <0 antagonist
[17] = FDA drug library screen, cholesterol-free media with simvastatin 0.04 μM
[18] = FDA drug library screen, complete media
[19] = Complete minus Cholesterol-free, greater than 0 enhanced anti-cancer activity, about 0 neutral, below 0 antagonists
[20] = NCI-H292 cells in cholesterol-free media without statin
[21] = NCI-H292 cells in complete media
[22] = FDA library drug in complete media
[23] = FDA library drug in cholesterol-free media with simvastatin 0.04 μM

Molecule | Cholesterol-free [1, 3] | Complete [1, 4] | Difference [2, 7] | Difference [1, 8] | Cholesterol-free [1, 9] | Complete ([1]; NCI-H292 cells, complete media) | Difference [2, 16] | Cholesterol-free media + simvastatin (0.04 μM) [2, 17] | Complete Media [2, 18] | also measured
CNC(=O)c1ccccc1Sc1ccc2c(/C=C/c3ccccn3)n[nH]c2c1 [Axitinib] | 0.7104 | 1.034 | −0.21 | – | – | – | – | – | – | Difference [1, 5]: 0.32; Cholesterol-free media + simvastatin (0.04 μM) [2, 6]: 0.9239; Complete Media ([2]; drug in complete media): 0.7152
O=C(O)c1cc(/N=N/c2ccc(S(=O)(=O)Nc3ccccn3)cc2)ccc1O [Sulfasalazine] | – | – | – | −0.20 | 1.104 | 0.9081 | – | – | – | Cholesterol-free media + simvastatin (0.04 μM) [2, 10]: 1.17; Complete Media [2, 11]: 1.155; Difference [2, 12]: −0.01
OC1(c2ccc(Cl)c(C(F)(F)F)c2)CCN(CCCC(c2ccc(F)cc2)c2ccc(F)cc2)CC1 [Penfluridol] | – | – | – | – | – | – | – | – | – | Difference ([1]; Complete minus Cholesterol-free, greater than 0 enhanced anti-cancer activity, about 0 neutral, below 0 antagonist): −0.14; Cholesterol-free ([1]; NCI-H292 cells, FDA drug library screen, cholesterol-free media without statin): 0.7419; Complete ([1]; NCI-H292 cells, FDA drug library screen, complete media): 0.6047; Cholesterol-free media + simvastatin (0.04 μM) [2, 10]: 1.076; Complete Media [2, 11]: 1.033; Difference [2, 12]: −0.04
C#CCN(C)Cc1ccccc1 [Pargyline (hydrochloride)] | – | – | – | – | 1.204 | 0.7875 | – | – | – | Difference [1, 13]: −0.42; Cholesterol-free media + simvastatin (0.04 μM) [2, 10]: 0.8767; Complete Media [2, 11]: 0.8243; Difference [2, 12]: −0.05
C#Cc1cccc(Nc2ncnc3cc4c(cc23)OCCOCCOCCO4)c1 [Icotinib] | 0.4295 | 0.3774 | – | −0.05 | – | – | 0.04 | – | – | Cholesterol-free media + simvastatin (0.04 μM) [2, 14]: 0.6476; Complete Media [2, 15]: 0.6925
CN1CCC(=C2c3ccccc3C=Cc3ccccc32)CC1 [Cyproheptadine (hydrochloride sesquihydrate)] | 0.8413 | 1.399 | – | – | – | – | 0.11 | – | – | Difference [1, 5]: 0.56; Cholesterol-free media + simvastatin (0.04 μM) [2, 14]: 1.087; Complete Media [2, 15]: 1.192
CCCCCCCCCCC[C@@H](C[C@@H]1OC(=O)[C@H]1CCCCCC)OC(=O)[C@H](CC(C)C)NC=O [Orlistat] | 1.018 | 1.513 | – | – | – | – | 0.43 | 1.19 | 1.622 | Difference [1, 5]: 0.49
COc1cc(NCc2ccc3nc(N)nc(N)c3c2C)cc(OC)c1OC [Trimetrexate] | 0.1317 | 0.09583 | −0.10 | −0.04 | – | – | – | 0.2201 | 0.1203 | –
CC(C)(C)C(O)/C=C/c1ccc2c(c1)OCO2 (stereo not drawn) [Stiripentol] | 0.9226 | 0.9415 | – | 0.02 | – | – | – | – | – | Cholesterol-free media + simvastatin (0.04 μM) [2, 10]: 0.9313; Complete Media [2, 11]: 0.8754; Difference [2, 12]: −0.06
CN(C/C=C/C#CC(C)(C)C)Cc1cccc2ccccc12 [Terbinafine hydrochloride] | – | – | −0.12 | – | – | – | – | 1.241 | 1.124 | Difference [1, 19]: −0.57; Cholesterol-free [1, 20]: 1.793; Complete [1, 21]: 1.222
CCCCc1nc(Cl)c(CO)n1Cc1ccc(-c2ccccc2-c2nn[nH]n2)cc1 [Losartan (potassium)] | – | – | −0.21 | −0.24 | 1.05 | 0.8102 | – | – | – | Cholesterol-free media + simvastatin (0.04 μM) [2, 6]: 1.17; Complete Media ([2]; drug in complete media): 0.9634
CN(C)CCCOc1nn(Cc2ccccc2)c2ccccc12 [Benzydamine (hydrochloride)] | – | – | – | – | 1.444 | 1.002 | 0.60 | 0.5074 | 1.108 | Difference [1, 13]: −0.44
NNc1nncc2ccccc12 [Hydralazine (hydrochloride)] | – | – | – | – | 1.529 | 1.081 | 0.06 | – | – | Difference [1, 13]: −0.45; Cholesterol-free media + simvastatin (0.04 μM) [2, 14]: 1.049; Complete Media [2, 15]: 1.113
OC[C@H]1O[C@@H](O[C@H]2[C@H](O)[C@@H](O)[C@@H](O)O[C@@H]2CO)[C@H](O)[C@@H](O)[C@H]1O [Lactose] | – | – | −0.28 | – | – | – | – | – | – | Difference [1, 19]: −0.48; Complete [1, 21]: 0.6552; Complete Media [2, 22]: 0.9497
CCN(CC)CCNC(=O)c1c(C)[nH]c(/C=C2\C(=O)Nc3ccc(F)cc32)c1C [Sunitinib] | 0.5331 | 0.523 | −0.36 | −0.01 | – | – | – | – | – | Cholesterol-free media + simvastatin (0.04 μM) [2, 23]: 1.48; Complete Media [2, 22]: 1.121
CN1C(=O)C[C@@H](C(=O)N[C@@H](Cc2c[nH]cn2)C(=O)N2CCC[C@H]2C(N)=O)NC1=O [Taltirelin] | – | – | – | – | 1.305 | 0.871 | – | – | – | Difference ([1]; complete vs cholesterol-free media, […]): −0.43; Cholesterol-free media + simvastatin (0.04 μM) [2, 6]: 1.39; Difference ([2]; complete media vs cholesterol-free media + simvastatin (0.04 μM), […]): −0.24
Nc1nc(Cl)nc2c1ncn2[C@H]1C[C@H](O)[C@@H](CO)O1 [Cladribine] | −0.008506 | 0.0649 | −0.13 | 0.07 | – | – | – | 0.1545 | 0.02741 | –
COc1c2occc2cc2ccc(=O)oc12 [Methoxsalen] | – | – | −0.38 | – | – | – | – | – | – | Difference [1, 19]: −0.72; Cholesterol-free [1, 20]: 1.514; Complete [1, 21]: 0.7902; Cholesterol-free media + simvastatin (0.04 μM) [2, 23]: 1.34; Complete Media [2, 22]: 0.9575
CN(CCOc1ccc(NS(C)(=O)=O)cc1)CCc1ccc(NS(C)(=O)=O)cc1 [Dofetilide] | – | – | – | – | – | – | 0.16 | 0.6812 | 0.8394 | Difference [1, 19]: −0.48; Cholesterol-free [1, 20]: 1.275; Complete [1, 21]: 0.7972
CCCCC[C@H](O)/C=C/[C@@H]1[C@@H](C/C=C\CCCC(=O)O)[C@@H](O)C[C@H]1O.NC(CO)(CO)CO [Dinoprost (tromethamine salt)] | – | – | −0.59 | – | 1.291 | 0.9605 | – | – | – | Difference [1, 13]: −0.33; Cholesterol-free media + simvastatin (0.04 μM) [2, 23]: 1.671; Complete Media [2, 22]: 1.083
CO[C@@H]1[C@@H](O[C@@H]2O[C@H](C)[C@@H](O[C@H]3C[C@@](C)(O)[C@@H](OC(=O)CC(C)C)[C@H](C)O3)[C@H](N(C)C)[C@H]2O)[C@@H](CC=O)C[C@@H](C)[C@@H](O)/C=C/C=C/C[C@@H](C)OC(=O)C[C@H]1OC(C)=O [Josamycin] | 0.6797 | 1.216 | −0.09 | – | – | – | – | 0.9194 | 0.8246 | Difference [1, 5]: 0.54
c1ccc2c(c1)Sc1ccccc1N2CC1CN2CCC1CC2 (stereo not drawn) [Mequitazine] | – | – | – | – | 1.704 | 1.338 | 0.13 | – | – | Difference [1, 13]: −0.37; Cholesterol-free media + simvastatin (0.04 μM) [2, 14]: 0.8559; Complete Media [2, 15]: 0.9842
Brompheniramine (maleate) | – | – | – | – | – | – | 0.30 | 0.8932 | 1.189 | Difference [1, 19]: −0.54; Cholesterol-free [1, 20]: 1.443; Complete [1, 21]: 0.9065
